According to ChEMBL document CHEMBL1671790, “A new β-carbonic anhydrase from Brucella suis, its cloning, characterization, and inhibition with sulfonamides and sulfamates, leading to impaired pathogen growth” (Bioorg Med Chem, 2011):

Columns and labels:
[1] = tested on: Brucella suis
[2] = tested on: Brucella suis; remark: listed apart in the source
[3] = tested on: Helicobacter pylori; assay: Activity at Helicobacter pylori beta-carbonic anhydrase by spectrophotometry at pH 8.3
[4] = tested on: Brucella suis; assay: Ratio of kcat to Km for Brucella suis carbonic anhydrase I
[5] = tested on: Brucella suis; assay: Ratio of kcat to Km for Brucella suis carbonic anhydrase II
[6] = tested on: Helicobacter pylori; assay: Ratio of kcat to Km for Helicobacter pylori beta-carbonic anhydrase
[7] = tested on: O=C=O; assay: Activity at human carbonic anhydrase II by spectrophotometry at pH 7.5
[8] = tested on: O=C=O; assay: Ratio of kcat to Km for human carbonic anhydrase II
[9] = tested on: O=C=O; conditions: Homo sapiens
[10] = tested on: O=C=O; assay: Ratio of kcat to Km for human carbonic anhydrase I

Chain of Carbonic anhydrase 1 (Homo sapiens), P00915 (P00915 whole entry): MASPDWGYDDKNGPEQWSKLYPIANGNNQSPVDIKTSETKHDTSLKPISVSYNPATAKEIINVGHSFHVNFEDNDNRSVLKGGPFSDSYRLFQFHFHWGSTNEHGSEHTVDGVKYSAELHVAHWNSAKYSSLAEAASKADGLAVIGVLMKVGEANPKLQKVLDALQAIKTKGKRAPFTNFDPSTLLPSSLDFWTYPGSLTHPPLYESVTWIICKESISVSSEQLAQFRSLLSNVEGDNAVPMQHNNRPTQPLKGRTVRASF

Compound: O=C=O
- kcat [1]: 6.4 ×10⁵ /s
- kcat [2]: 1.1 ×10⁶ /s
- kcat [3]: 7.1 ×10⁵ /s
- kcat/Km [4]: 3.9 ×10⁷ /M/s
- kcat/Km [5]: 8.9 ×10⁷ /M/s
- kcat/Km [6]: 4.8 ×10⁷ /M/s

Compound: Carbonic anhydrase 2 (Homo sapiens) (from UniProt P00918)
- kcat [7]: 1.4 ×10⁶ /s
- kcat/Km [8]: 1.5 ×10⁸ /M/s

Compound: Carbonic anhydrase 1 (Homo sapiens), P00915
- kcat [9]: 2 ×10⁵ /s
- kcat/Km [10]: 5 ×10⁷ /M/s
